Results from PMC9919513, “A Practical Approach to Bicyclic Carbamoyl Pyridones with Application to the Synthesis of HIV-1 Integrase Strand Transfer Inhibitors” (Molecules, 2023).
Like-named read-outs stand apart in the source and are kept apart here.

Tests used:
[1] = system: HIV-1 vectors that carry WT IN; assay: Single-round HIV-1 replication antiviral assay, wild-type IN; format: cell-based; conditions: for EC50: 48 h; for Ratio of the antiviral potencies after and before hydrogenation (WT): EC50 of saturated 7 over EC50 of unsaturated 6, WT IN
Procedure: The bicyclic metal chelating carbamoyl pyridone moiety is common to second-generation tricyclic INSTIs (3, 4, and 5, Figure 1). Analogs of the current study are simplified analogs that lack a third ring. […] The halogen substitution pattern of the benzylamide moiety can affect inhibitory potencies of INSTIs. We determined the antiviral potencies of our compounds in single round HIV-1 replication assays using viral constructs with wild-type IN [31]. Cytotoxicities were determined as previously described. […] In general, the potencies of bicyclic analogs 6 having an unsaturated bond at the C4 position were insensitive to differences in N-methyl substituents. […] Analogs 6g and 6h represent simplified analogs of DTG (3) and CAB (5), respectively, in which the third ring (C-ring) is opened and having doble bond in B-ring, but lacking α-methyl stereochemistry.
Human embryonic kidney cell culture cell line 293 was acquired from the American Type Culture Collection (ATCC). The human osteosarcoma cell line, HOS, was obtained from Dr. Richard Schwartz (Michigan State University, East Lansing, MI, USA) and grown in Dulbecco’s modified Eagle’s medium (Invitrogen, Carlsbad, CA, USA) supplemented with 5% (v/v) fetal bovine serum, 5% newborn calf serum, and penicillin (50 units/mL) plus streptomycin (50 µg/mL; Quality Biological, Gaithersburg, MD, USA). The transfection vector, pNLNgoMIVR-ΔLUC was made from pNLNgoMIVR-ΔEnv.HSA by removing the HSA reporter gene and replacing it with a luciferase reporter gene between the NotI and XhoI restriction sites. To produce the new IN mutant S230N used in this study, the IN open reading frame was removed from pNLNgoMIVR-ΔENV.LUC by digestion with KpnI and SalI, and the resulting fragment was inserted between the KpnI and SalI sites of pBluescript KS+. Using that construct as the wild-type template, we prepared the following HIV-1 IN mutant S230N using the QuikChange II XL site-directed mutagenesis kit (Agilent Technologies, Santa Clara, CA, USA) protocol. The following sense oligonucleotides were used with matching cognate antisense oligonucleotides (not shown) (Integrated DNA Technologies, Coralville, IA, USA) in the mutagenesis: S230N 5′-[…]-3′. The DNA sequence of the IN mutant S230N construct was verified independently by DNA sequence determination. The mutated IN coding sequences from pBluescript KS+ were then subcloned into pNLNgoMIVR-ΔEnv.LUC (between the KpnI and SalI sites) to produce mutant HIV-1 constructs, which were also checked by DNA sequencing. […]. On the day prior to transfection, 293 cells were plated on 100 mm diameter dishes at a density of 1.5 × 10^6 cells per plate. Next, 293 cells were transfected with 16 µg of pNLNgoMIVR^-ΔLUC and 4 µg of pHCMV-g (obtained from Dr. Jane Burns, University of California, San Diego) using the calcium phosphate method. At approximately 6 h after the calcium phosphate precipitate was added, 293 cells were washed twice with phosphate-buffered saline (PBS) and incubated with fresh media for 48 h. The virus-containing supernatants were then harvested, clarified by low-speed centrifugation, filtrated, and diluted for preparation in antiviral infection assays. On the day prior to the screen, HOS cells were seeded in a 96-well luminescence cell culture plate at a density of 4000 cells in 100 µL per well. On the day of the screen for cellular cytotoxicity determination, cells were treated with compounds from a concentration range of 250 µM to 0.05 µM and then incubated at 37 °C for 48 h. On the day of the screen for antiviral activity infection assays, cells were treated with compounds from a concentration range of 5 µM to 0.0001 µM using 11 serial dilutions and then incubated at 37 °C for 3 h. After compound incorporation and activation in the cell, 100 µL of virus-stock (WT or mutant) diluted to achieve a luciferase signal between 0.2 and 1.5 Relative Luciferase Units (RLUs) was added to each well and further incubated at 37 °C for 48 h. […]

[2] = Human immunodeficiency virus 1, HOS, read-out: EC50, antiviral potency, WT IN, VSV-g-pseudotyped HIV-1 luciferase vector with WT IN, HOS cells, 48 h
[3] = read-out: EC50, antiviral potency, WT IN, VSV-g-pseudotyped HIV-1 luciferase vector with WT IN, HOS cells

Structure (SMILES)	EC50 [1, 2] [nM]	EC50 [1, 3] [nM]	Ratio of the antiviral potencies after and before hydrogenation (WT) [1]	melting point [°C]
O=C(NCc1ccc(F)cc1F)c1cn2ccn(CCCCCO)c(=O)c2c(O)c1=O [Compound 6d, N-(2,4-Difluorobenzyl)-9-hydroxy-2-(5-hydroxypentyl)-1,8-dioxo-1,8-dihydro-2H-pyrido [1,2-a]pyrazine-7-carboxamide]	~11	10.8 ± 1.7	–	–
O=C(NCc1ccc(F)cc1F)c1cn2c(c(O)c1=O)C(=O)N(CCCCCCO)CC2 [Compound 7c, N-(2,4-Difluorobenzyl)-9-hydroxy-2-(6-hydroxyhexyl)-1,8-dioxo-1,3,4,8-tetrahydro-2H-pyrido [1,2-a]pyrazine-7-carboxamide]	31.7 ± 3.8	–	6.6	208 to 210
O=C(NCc1ccc(F)cc1F)c1cn2c(c(O)c1=O)C(=O)N(CCCCO)CC2 [Compound 7e, N-(2,4-Difluorobenzyl)-9-hydroxy-2-(4-hydroxybutyl)-1,8-dioxo-1,3,4,8-tetrahydro-2H-pyrido [1,2-a]pyrazine-7-carboxamide]	75.7 ± 7.4	–	4.6	210 to 215
O=C(NCc1ccc(F)cc1F)c1cn2ccn(CCCCCCO)c(=O)c2c(O)c1=O [Compound 6c, N-(2,4-Difluorobenzyl)-9-hydroxy-2-(6-hydroxyhexyl)-1,8-dioxo-1,8-dihydro-2H-pyrido [1,2-a]pyrazine-7-carboxamide]	4.8 ± 0.9	–	–	–
O=C(NCc1ccc(F)cc1F)c1cn2ccn(CCCCO)c(=O)c2c(O)c1=O [Compound 6e, N-(2,4-Difluorobenzyl)-9-hydroxy-2-(4-hydroxybutyl)-1,8-dioxo-1,8-dihydro-2H-pyrido [1,2-a]pyrazine-7-carboxamide]	~17	16.6 ± 2	–	–
